For this test, the system named is BDF1 mice, colon carcinoma 38 sc, T/C %. As to the kind of experiment: NCI In Vivo Anticancer Drug Screen. Data for tumor model Colon Carcinoma 38 (subcutaneous) in B6D2F1 (BDF1) mice. To be noted: endpoint: median tumor weight (est.), higher = larger tumour. The protocol:
The antitumor activity of compounds was measured in mice bearing transplantable tumors. Survival or tumor size were measured and the results are expressed as the measurement made in the treated group (T) divided by the measurement made in the vehicle treated control group (C). The tumor model used in this assay is Colon Carcinoma 38 (subcutaneous) in B6D2F1 (BDF1) mice

The mark [1] stands for this setting: dose: 200.0 mg/kg/injection, schedule: Q07DX002 (ip), vehicle: saline.
The mark [2] stands for this setting: dose: 400.0 mg/kg/injection, schedule: Q07DX002 (ip), vehicle: saline.
Setting [3] is: dose: 50.0 mg/kg/injection, schedule: Q07DX002 (ip), vehicle: saline.
Where [4] appears, read: dose: 100.0 mg/kg/injection, schedule: Q07DX002 (ip), vehicle: saline.
The mark [5] stands for this setting: dose: 25.0 mg/kg/injection, schedule: Q07DX002 (ip), vehicle: saline with Tween-80.
[6] abbreviates: dose: 50.0 mg/kg/injection, schedule: Q07DX002 (ip), vehicle: saline with Tween-80.
Where [7] appears, read: dose: 100.0 mg/kg/injection, schedule: Q07DX002 (ip), vehicle: saline with Tween-80.

Several values for one entry are separate records, joined by “and”; a condition that tells them apart may be missing. Equal values may be shown once. Records with an inconclusive call do not appear.

Experimental findings from PubChem BioAssay AID212 (DTP/NCI, 2004) are described below.

Regarding `Nc1ncnc2c1ncn2C1OC(COP(=O)(O)O)C(O)C1O` (stereo unspecified), the T/C by setting is: (dose: 12.5 mg/kg/injection, schedule: Q07DX003 (ip), vehicle: water) 79 % of control; (dose: 25.0 mg/kg/injection, schedule: Q07DX003 (ip), vehicle: water) 70 % of control; (dose: 50.0 mg/kg/injection, schedule: Q07DX003 (ip), vehicle: water) 60 % of control; (dose: 80.0 mg/kg/injection, schedule: Q07DX002 (ip), vehicle: water) 81 % of control; (dose: 100.0 mg/kg/injection, schedule: Q07DX003 (ip), vehicle: water) 95 % of control; (dose: 160.0 mg/kg/injection, schedule: Q07DX002 (ip), vehicle: water) 70 % of control. Further, the T/C by setting is: under setting [1], 94 % of control; (dose: 200.0 mg/kg/injection, schedule: Q07DX003 (ip), vehicle: water) 118 % of control; (dose: 320.0 mg/kg/injection, schedule: Q07DX002 (ip), vehicle: water) 80 % of control; under setting [2], 89 % of control; (dose: 400.0 mg/kg/injection, schedule: Q07DX003 (ip), vehicle: water) 56 % of control; (dose: 640.0 mg/kg/injection, schedule: Q07DX002 (ip), vehicle: water) 86 % of control. Also, the T/C reads like this: (dose: 1600.0 mg/kg/injection, schedule: Q07DX002 (ip), vehicle: saline) 77 % of control; (dose: 3200.0 mg/kg/injection, schedule: Q07DX002 (ip), vehicle: saline) 50 % of control.
Consider `Cc1ccccc1CN1C2=NCCN2C(=O)C2=C1CCN(S(=O)(=O)c1ccc(Cl)c(S(N)(=O)=O)c1)C2`, for which the T/C by setting is: under setting [3], 97 % of control; under setting [4], 86 % of control; under setting [1], 91 % of control; under setting [2], 96 % of control; (dose: 450.0 mg/kg/injection, schedule: Q07DX002 (ip), vehicle: saline) 84 % of control; (dose: 900.0 mg/kg/injection, schedule: Q07DX002 (ip), vehicle: saline) 100 % of control. Further, the T/C (dose: 1800.0 mg/kg/injection, schedule: Q07DX002 (ip), vehicle: saline) is 110 % of control.
For `CNC(=O)OCc1c(COC(=O)NC)c(-c2ccccc2)n(C)c1-c1ccccc1`, the T/C (dose: 100.0 mg/kg/injection, schedule: Q07DX002 (ip), vehicle: distilled water + Tween-80) is 62 % of control.
On to `COc1ccc(Cl)[n+]([O-])n1`, for which the T/C was 83 % of control (dose: 6.25 mg/kg/injection, schedule: Q07DX002 (ip), vehicle: Klucel (hydroxypropylcellulose) (HPC)); 87 % of control (dose: 12.5 mg/kg/injection, schedule: Q07DX002 (ip), vehicle: Klucel (hydroxypropylcellulose) (HPC)); 89 % of control (dose: 25.0 mg/kg/injection, schedule: Q07DX002 (ip), vehicle: Klucel (hydroxypropylcellulose) (HPC)); 81 % of control (dose: 50.0 mg/kg/injection, schedule: Q07DX002 (ip), vehicle: Klucel (hydroxypropylcellulose) (HPC)); 90 % of control (dose: 100.0 mg/kg/injection, schedule: Q07DX002 (ip), vehicle: Klucel (hydroxypropylcellulose) (HPC)).
On to `C=C(C)[C@]12CC(C)C34OC(/C=C\C=C\CCCCCCCCC)(O[C@@H]1[C@@H]3[C@@H]1O[C@]1(CO)[C@@H](O)[C@]1(O)C(=O)C(C)=C[C@@H]41)O2` (stereo partly specified), for which the T/C is, setting by setting: (dose: 0.18 mg/kg/injection, schedule: Q07DX002 (ip), vehicle: distilled water + alcohol) 109 % of control; (dose: 0.37 mg/kg/injection, schedule: Q07DX002 (ip), vehicle: distilled water + alcohol) 76 % of control; (dose: 0.75 mg/kg/injection, schedule: Q07DX002 (ip), vehicle: distilled water + alcohol) 105 % of control; (dose: 1.5 mg/kg/injection, schedule: Q07DX002 (ip), vehicle: distilled water + alcohol) 75 % of control.
As for `CCOC1=Cc2c(oc3c(C(C)(C)C)cc(OCC)cc23)OC(C(C)(C)C)=C1`, the T/C (dose: 0.78 mg/kg/injection, schedule: Q07DX002 (ip), vehicle: saline with Tween-80) was 94 % of control; the T/C (dose: 1.56 mg/kg/injection, schedule: Q07DX002 (ip), vehicle: saline with Tween-80) was 102 % of control; the T/C (dose: 6.25 mg/kg/injection, schedule: Q07DX002 (ip), vehicle: saline with Tween-80) was 83 % of control (2×) and 88 % of control; the T/C (dose: 12.5 mg/kg/injection, schedule: Q07DX002 (ip), vehicle: saline with Tween-80) is 64 % of control and 65 % of control; the T/C under setting [5] is 55 % of control and 64 % of control; the T/C under setting [6] is 51 % of control and 65 % of control. Besides, the T/C under setting [7] is 72 % of control and 77 % of control.
In the case of `C[C@]12CC[C@@H]3c4ccc(OC(=O)Cc5ccc(N(CCCl)CCCl)cc5)cc4CC[C@H]3[C@@H]1CC[C@@H]2OC(=O)Cc1ccc(N(CCCl)CCCl)cc1`, the T/C is, setting by setting: under setting [6], 185 % of control; under setting [7], 176 % of control; (dose: 200.0 mg/kg/injection, schedule: Q07DX002 (ip), vehicle: saline with Tween-80) 173 % of control and 201 % of control; (dose: 400.0 mg/kg/injection, schedule: Q07DX002 (ip), vehicle: saline with Tween-80) 256 % of control; (dose: 800.0 mg/kg/injection, schedule: Q07DX002 (ip), vehicle: saline with Tween-80) 195 % of control.
With `CS(=O)(=O)OCCCNCCCOS(C)(=O)=O`, the T/C was 43 % of control (dose: 9.3 mg/kg/injection, schedule: Q07DX003 (ip), vehicle: saline); 73 % of control (dose: 18.75 mg/kg/injection, schedule: Q07DX003 (ip), vehicle: saline); 58 % of control (dose: 37.5 mg/kg/injection, schedule: Q07DX003 (ip), vehicle: saline); 36 % of control (dose: 75.0 mg/kg/injection, schedule: Q07DX003 (ip), vehicle: saline).
In the case of `CCCCOCN(COCCCC)C(C)Cc1ccccc1` (stereo unspecified), the T/C under setting [5] is 85 % of control and 106 % of control; the T/C under setting [6] was 120 % of control and 99 % of control.
In the case of `COc1cc(Cc2nccc3cc(OC)c(OC)cc23)c(C(C)=O)c(OC)c1`, the T/C reads like this: (dose: 10.0 mg/kg/injection, schedule: Q07DX002 (ip), vehicle: suspension in saline) 104 % of control; (dose: 20.0 mg/kg/injection, schedule: Q07DX002 (ip), vehicle: saline) 110 % of control; (dose: 20.0 mg/kg/injection, schedule: Q07DX002 (ip), vehicle: suspension in saline) 103 % of control; (dose: 40.0 mg/kg/injection, schedule: Q07DX002 (ip), vehicle: saline) 107 % of control; (dose: 40.0 mg/kg/injection, schedule: Q07DX002 (ip), vehicle: suspension in saline) 59 % of control; (dose: 80.0 mg/kg/injection, schedule: Q07DX002 (ip), vehicle: saline) 82 % of control. Moreover, the T/C (dose: 80.0 mg/kg/injection, schedule: Q07DX002 (ip), vehicle: suspension in saline) is 81 % of control; the T/C (dose: 160.0 mg/kg/injection, schedule: Q07DX002 (ip), vehicle: saline) was 96 % of control; the T/C (dose: 320.0 mg/kg/injection, schedule: Q07DX002 (ip), vehicle: saline) is 74 % of control.
On to `O=c1ncccn1[C@@H]1O[C@H](CO)[C@H](O)C1O` (stereo partly specified), for which the T/C was 61 % of control and 82 % of control under setting [3]; 65 % of control and 75 % of control under setting [4]; 66 % of control and 84 % of control under setting [1]; 62 % of control and 66 % of control under setting [2]; 67 % of control and 74 % of control (dose: 800.0 mg/kg/injection, schedule: Q07DX002 (ip), vehicle: saline).
Consider `Cc1ccccc1SSc1ccccc1C`, for which the T/C is, setting by setting: (dose: 25.0 mg/kg/injection, schedule: Q07DX003 (ip), vehicle: other) 92 % of control; (dose: 25.0 mg/kg/injection, schedule: Q07DX003 (ip), vehicle: saline with Tween-80) 96 % of control; (dose: 50.0 mg/kg/injection, schedule: Q07DX003 (ip), vehicle: other) 123 % of control; (dose: 50.0 mg/kg/injection, schedule: Q07DX003 (ip), vehicle: saline with Tween-80) 88 % of control; (dose: 100.0 mg/kg/injection, schedule: Q07DX003 (ip), vehicle: other) 89 % of control; (dose: 100.0 mg/kg/injection, schedule: Q07DX003 (ip), vehicle: saline with Tween-80) 62 % of control. For the same compound, the T/C reads like this: (dose: 200.0 mg/kg/injection, schedule: Q07DX003 (ip), vehicle: other) 84 % of control; (dose: 200.0 mg/kg/injection, schedule: Q07DX003 (ip), vehicle: saline with Tween-80) 74 % of control.
